Measurements reported in patent publication EP0075436B1, “Substituted 4,5-dihydro-6-(substituted)-phenyl-3(2H)-pyridazinones and 6-(substituted)phenyl-3(2H)-pyridazinones” (WARNER-LAMBERT COMPANY, priority 1981, dated 1983).

What was measured:
[1] = tested on: pentobarbital-anesthetized dog; experiment: Test for in vivo myocardial inotropic activity in anesthetized dog; conditions: intravenous; for % Change Blood Pressure: aortic blood pressure; for % Change Myocardial Contractility: dP/dt of left ventricular blood pressure
Procedure: Test for in vivo myocardial inotropic activity in anesthetized dog This screen consists of determining the effects of increasing intravenous doses of compound on myocardial contractility (dP/dt mad of left ventricular blood pressure), heart rate and aortic blood pressure of the pentobarbital-anesthetized dog. Adult mongrel dogs of either sex are anesthetized with pentobarbital, 35 mg/kg, IV, and are subsequently maintained under anesthesia with a continuous infusion of pentabarbital, 3.5 mg/kg/hour. The trachea is intubated but the animals are permitted to breathe spontaneously. A cannula is inserted into the femoral vein for administrating test agents. A Millar catheter tip pressure transducer or a fluid filled catheter is inserted into the ascending aorta via the femoral artery for measuring aortic blood pressure. A Millar catheter tip pressure transducer is passed into the left ventricle via the left carotid artery for measuring left ventricular blood pressure. Needle electrodes are.placed subcutaneously for recording a lead II electrocardiogram (ECG). Left ventricular and aortic blood pressures are recorded on a strip chart recorder. Heart rate, using a . biotachometer triggered from the R wave of the ECG, and the first derivative of left ventricular blood pressure (dP/dt), obtained with a differentiator amplifier coupled to the corresponding pressure amplifier, are also recorded. A period of at least 30 minutes is utilized to obtain control data prior to administration of test compound. Depending on solubility, the compounds are dissolved in 0.9% saline solution or in dilute HCI or NaOH (0.1 or 1.0 N) and are diluted to volume with normal saline. Ethanol or dimethylacetamide can be used as solvents if adequate dilutions can be made. Appropriate vehicle controls are administered when needed. Each dose of the test compound is administered in volume of 0.1 ml/kg over a period of one minute.

[2] = tested on: conscious rat; experiment: Direct monitoring of aortic blood pressure and heart rate from conscious rats; type: in vivo; conditions: doses 1, 3, 10, and 30 mg/kg
Source text: A method for the direct monitoring of aortic blood pressure and heart rate from conscious rats
The continuous monitoring of pulsatile blood pressure from unrestrained conscious rats surgically equipped with polyethylene cannulas was accomplished by means of a computer assisted data capture scheme (CADCS). The basic elements of the methodology are the cannulation procedure and the CADCS. Method
Cannulation Procedure: Rats were anesthetized with Telazol (1:1 tiletamine HCI and zolazepam HCI; WU PD, Ann Arbor, MI) 20-40 mg/kg IM and the descending aorta exposed via a midline incision. Cannulus fabricated from polyethylene tubing (Clay Adams, Parsippany, NJ) were inserted into the aorta via an undersized puncture hole below the renal arteries. The puncture hole was made by a 23 G disposable needle with a section of the aorta clamped off above and below the puncture site. The cannulas, consisting of a PE100 (0.86 mm ID) body and a PE50 (0.58 mm ID) tip, were attached to a trocar, inserted through the psoas muscle, and passed subcutaneously along the midline of the back and externalized between the ears. The cannulas were anchored to the psoas muscle and between the scapulae (3-0 green braided suture; Deknatel, Queens Village, NY). The midline incision was closed in two steps (muscle first, skin second) using continuous over-and-over sutures (4-0 chronic; Ethicon, Somerville, NJ). Each rat was then given penicillin 30,000 units subcutaneously (Penicillin G Procaine Sterile Suspension; Parke-Davis, Detroit, MI).
The rats were fitted with a harness-spring-swivel assembly designed to protect the cannula and to provide the rat relative freedom of movement. The harnesses were fabricated from nylon hook and loop tape (Velcro, Manchester, NH) cemented to a metal plate to which spring wires (18-8 stainless steel, Paragon Spring; Chicago, IL) were attached to brass swivels (BRS/LVE, Bellville: MD). Each polyethylene cannula was channeled through a spring and connected through a swivel to a pressure transducer (Model P23Gb; Statham Instruments; Hato Rey, Puerto Rico) and an infusion pump (Sage model 234-7; Orion Research, Cambridge, MA) by means of PE100 tubing. While on test, each rat received a continuous slow infusion of heparinized saline solution […] or 40 units of heparin per 24-hour period) to prevent clot formation. Additional "flushes" of the cannula with heparinized saline were carriedd out when the aortic pulse pressure (systolic minus diastolic) was less than 25 mm Hg.
CADCS: The pulsatile blood pressure and heart rate of each of 32 rats was monitored every minute by means of two in-laboratory microcomputers communicating directly with a data concentrator computer. The data were first stored on the data concentrator disk and then transferred to a magnetic tape for analysis and report generation by the main research computer (Varian V-74 or IBM). The overall scheme involved modulating the primary signal from the pressure transducer, generating the primary data set of the one- minute values for systolic, diastolic, and mean blood pressures and heart rate by the in-lab microcomputer and the storage, analysis, and report generation by the main research computer.
The transducers were connected to analog signal conditioning modules. The modules provided a regulated excitation voltage for the transducers, amplification as required to interface the microprocessors and an active low pass filter to compensate for the pressure wave form distortion produced by the flexible, fluid filled, narrow lumened cannula. The distortion was 22-26 Hz and thus provided a reliable estimate of both systolic and diastolic blood pressure.
The microcomputers (one for each of two groups of 16 rats) were connected to the input components through the module interface units, an analog-to-digital converter for the pressure wave form signal and the digital inputs for the dose and event marker switches. […]

SMILES: O=C1CCC(c2ccc(-n3cnc4c3CCCC4)cc2)=NN1 [Example 8, 4,5-Dihydro-6-[4-(4,5,6,7-tetrahydro-1H-benzimidazol-1-yl)phenyl]-3(2H)-pyridazinone]
- % Change Heart Rate ([1]; dose 0.01 mg/kg): −3.0%
- % Change Blood Pressure ([1]; dose 0.01 mg/kg): −2.5%
- % Change Myocardial Contractility ([1]; dose 0.01 mg/kg): 10%
- % Change Heart Rate ([1]; dose 0.03 mg/kg): −15.0%
- % Change Blood Pressure ([1]; dose 0.03 mg/kg): −7.0%
- % Change Myocardial Contractility ([1]; dose 0.03 mg/kg): 21%
- % Change Heart Rate ([1]; dose 0.10 mg/kg): −17.0%
- % Change Blood Pressure ([1]; dose 0.10 mg/kg): −11.0%
- % Change Myocardial Contractility ([1]; dose 0.10 mg/kg): 51%
- % Change Heart Rate ([1]; dose 0.31 mg/kg): −18.0%
- % Change Blood Pressure ([1]; dose 0.31 mg/kg): −17.0%
- % Change Myocardial Contractility ([1]; dose 0.31 mg/kg): 95%
- % Change Heart Rate ([1]; dose 1.0 mg/kg): −7.0%
- % Change Blood Pressure ([1]; dose 1.0 mg/kg): −27.0%
- % Change Myocardial Contractility ([1]; dose 1.0 mg/kg): 127%
- aortic blood pressure [2]: significant reduction

SMILES: O=C1CCC(c2ccc(-n3ccnc3)cc2)=NN1 [Example 3a, 4,5-Dihydro-6-[4-(1H imidazol-1-yl)phenyl]-3(2H)-pyridazinone]
- % Change Heart Rate ([1]; dose 0.01 mg/kg): −4.0%
- % Change Blood Pressure ([1]; dose 0.01 mg/kg): −2.0%
- % Change Myocardial Contractility ([1]; dose 0.01 mg/kg): 9%
- % Change Heart Rate ([1]; dose 0.03 mg/kg): −4.0%
- % Change Blood Pressure ([1]; dose 0.03 mg/kg): −6.0%
- % Change Myocardial Contractility ([1]; dose 0.03 mg/kg): 32%
- % Change Heart Rate ([1]; dose 0.10 mg/kg): −1.0%
- % Change Blood Pressure ([1]; dose 0.10 mg/kg): −10.5%
- % Change Myocardial Contractility ([1]; dose 0.10 mg/kg): 57%
- % Change Heart Rate ([1]; dose 0.31 mg/kg): 2.0%
- % Change Blood Pressure ([1]; dose 0.31 mg/kg): −21.5%
- % Change Myocardial Contractility ([1]; dose 0.31 mg/kg): 87%

SMILES: O=C1CCC(c2ccc(-n3cnnc3)cc2)=NN1 [Example 10]
- aortic blood pressure [2]: significant reduction

SMILES: O=c1ccc(-c2ccc(-n3ccnc3)cc2)n[nH]1 [Example 13a, 6-[4-(1H-Imidazol-1-yl)phenyl]-3(2H)-pyridazinone]
- % Change Heart Rate ([1]; dose 0.01 mg/kg): 0.0%
- % Change Blood Pressure ([1]; dose 0.01 mg/kg): 0.0%
- % Change Myocardial Contractility ([1]; dose 0.01 mg/kg): 3%
- % Change Heart Rate ([1]; dose 0.03 mg/kg): 6.0%
- % Change Blood Pressure ([1]; dose 0.03 mg/kg): −1.5%
- % Change Myocardial Contractility ([1]; dose 0.03 mg/kg): 15%
- % Change Heart Rate ([1]; dose 0.10 mg/kg): 16.0%
- % Change Blood Pressure ([1]; dose 0.10 mg/kg): −6.0%
- % Change Myocardial Contractility ([1]; dose 0.10 mg/kg): 40%
- % Change Heart Rate ([1]; dose 0.31 mg/kg): 32.0%
- % Change Blood Pressure ([1]; dose 0.31 mg/kg): −9.0%
- % Change Myocardial Contractility ([1]; dose 0.31 mg/kg): 78%

SMILES: O=C1CCC(c2ccc(OCCn3ccnc3)cc2)=NN1 [Example 12, 4,5-Dihydro-6-[4-[2-(1H-imidazol-1-yl)ethoxy]phenyl]-3(2H)-pyridazinone]
- aortic blood pressure [2]: significant reduction

SMILES: O=c1ccc(-c2cccc(-n3ccnc3)c2)n[nH]1 [Example 14, 6-[3-(1H-Imidazol-1-yl)phenyl]-3(2H)-pyridazinone]
- aortic blood pressure [2]: significant reduction

SMILES: O=C1CCC(c2cccc(-n3ccnc3)c2)=NN1 [Example 6, 4,5-Dihydro-6-[3-(1-imidazol-1-yl)phenyl]-3(2H)-pyridazinone]
- % Change Heart Rate ([1]; dose 0.01 mg/kg): −2.0%
- % Change Blood Pressure ([1]; dose 0.01 mg/kg): 1.0%
- % Change Myocardial Contractility ([1]; dose 0.01 mg/kg): 6%
- % Change Heart Rate ([1]; dose 0.10 mg/kg): −1.0%
- % Change Blood Pressure ([1]; dose 0.10 mg/kg): −1.0%
- % Change Myocardial Contractility ([1]; dose 0.10 mg/kg): 36%
- % Change Heart Rate ([1]; dose 0.30 mg/kg): 2.0%
- % Change Blood Pressure ([1]; dose 0.30 mg/kg): −8.0%
- % Change Myocardial Contractility ([1]; dose 0.30 mg/kg): 71%
- % Change Heart Rate ([1]; dose 1.0 mg/kg): 11.0%
- % Change Blood Pressure ([1]; dose 1.0 mg/kg): −20.0%
- % Change Myocardial Contractility ([1]; dose 1.0 mg/kg): 114%
- aortic blood pressure [2]: significant reduction

SMILES: O=c1ccc(-c2ccc(-n3cnc4c3CCCC4)cc2)n[nH]1 [Example 15, 6-[4-(4,5,6,7-Tetrahydro-1H benzimidazol-1-yl)phenyl]-3(2H)-pyridazinone]
- aortic blood pressure [2]: significant reduction

SMILES: O=C1CCC(c2ccc(-n3cccc3)cc2)=NN1 [Example 11, 4,5-Dihydro-6-[4-(H-pyrrol-1-yl)phenyl]-3(2H)-pyridazinone]
- aortic blood pressure [2]: significant reduction

SMILES: O=c1ccc(-c2ccc(OCCn3ccnc3)cc2)n[nH]1 [Example 16, 6-[4-[2-(1H Imidazol-1-yl)ethoxy]phenyl]-3(2H)-pyridazinone]
- aortic blood pressure [2]: significant reduction
